Common to all, as to experiment: Nanosyn kinase profiling
Common to all, as to type: biochemical
Common to all, as to conditions: read-out: Percentage inhibition; for inhibition at 0.1 µM: 0.1 µM inhibitor; for inhibition at 1 µM: 1 µM inhibitor

One assay has as its target T1, ITK (Homo sapiens, UniProt Q08881).
T1 construct: purchased Nanosyn (enzymatic panel); SGC in-house recombinant human kinases (DSF panel); Invitrogen (ALK1-6)
T1 sequence (Q08881 1-620): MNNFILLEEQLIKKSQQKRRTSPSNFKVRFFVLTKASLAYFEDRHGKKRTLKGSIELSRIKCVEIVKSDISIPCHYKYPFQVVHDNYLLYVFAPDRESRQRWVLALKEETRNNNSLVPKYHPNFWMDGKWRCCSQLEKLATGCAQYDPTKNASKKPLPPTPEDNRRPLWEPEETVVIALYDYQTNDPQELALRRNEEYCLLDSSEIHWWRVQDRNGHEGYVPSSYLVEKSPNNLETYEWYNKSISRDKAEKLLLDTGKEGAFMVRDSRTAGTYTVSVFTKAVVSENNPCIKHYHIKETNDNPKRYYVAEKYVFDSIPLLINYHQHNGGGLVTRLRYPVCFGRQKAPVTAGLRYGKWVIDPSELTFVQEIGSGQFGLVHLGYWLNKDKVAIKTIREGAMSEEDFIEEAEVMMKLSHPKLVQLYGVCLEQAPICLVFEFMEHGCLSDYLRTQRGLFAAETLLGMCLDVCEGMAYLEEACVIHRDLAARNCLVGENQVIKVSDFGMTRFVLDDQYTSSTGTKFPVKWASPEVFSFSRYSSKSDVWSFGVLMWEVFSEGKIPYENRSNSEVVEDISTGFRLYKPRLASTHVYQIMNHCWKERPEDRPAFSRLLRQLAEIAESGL
The procedure, abridged:
(§1)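 Percent inhibition of each kinase was measured with the inhibitor at 0.1 µM and at 1 µM, as part of a 200-kinase human selectivity panel.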

A further assay has as its target T2, MARK4 (Homo sapiens, UniProt Q96L34).
T2 construct: purchased Nanosyn (enzymatic panel); SGC in-house recombinant human kinases (DSF panel); Invitrogen (ALK1-6)
T2 sequence (Q96L34 1-752): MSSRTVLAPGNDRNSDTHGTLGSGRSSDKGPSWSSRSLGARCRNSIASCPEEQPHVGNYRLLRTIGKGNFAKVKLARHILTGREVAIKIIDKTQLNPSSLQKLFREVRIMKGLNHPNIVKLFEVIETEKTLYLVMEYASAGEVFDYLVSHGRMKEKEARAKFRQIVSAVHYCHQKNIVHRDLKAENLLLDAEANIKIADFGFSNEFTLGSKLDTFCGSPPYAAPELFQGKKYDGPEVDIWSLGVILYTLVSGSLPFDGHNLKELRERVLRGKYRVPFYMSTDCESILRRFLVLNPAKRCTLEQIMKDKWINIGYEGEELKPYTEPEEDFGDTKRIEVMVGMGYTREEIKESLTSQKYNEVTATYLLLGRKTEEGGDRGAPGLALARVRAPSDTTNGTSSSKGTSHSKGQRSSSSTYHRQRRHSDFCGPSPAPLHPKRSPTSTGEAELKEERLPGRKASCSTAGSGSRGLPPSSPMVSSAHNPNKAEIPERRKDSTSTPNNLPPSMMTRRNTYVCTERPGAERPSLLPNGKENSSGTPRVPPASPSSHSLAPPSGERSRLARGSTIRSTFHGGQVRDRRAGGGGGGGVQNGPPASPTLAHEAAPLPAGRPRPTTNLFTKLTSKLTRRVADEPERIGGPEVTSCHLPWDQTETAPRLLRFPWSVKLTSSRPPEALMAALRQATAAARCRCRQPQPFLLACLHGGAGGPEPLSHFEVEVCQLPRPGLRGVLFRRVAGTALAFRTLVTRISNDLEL
The procedure, abridged: as §1

Another assay has as its target T3, PRKD3 (Homo sapiens, UniProt O94806).
T3 construct: purchased Nanosyn (enzymatic panel); SGC in-house recombinant human kinases (DSF panel); Invitrogen (ALK1-6)
T3 sequence (O94806 1-890): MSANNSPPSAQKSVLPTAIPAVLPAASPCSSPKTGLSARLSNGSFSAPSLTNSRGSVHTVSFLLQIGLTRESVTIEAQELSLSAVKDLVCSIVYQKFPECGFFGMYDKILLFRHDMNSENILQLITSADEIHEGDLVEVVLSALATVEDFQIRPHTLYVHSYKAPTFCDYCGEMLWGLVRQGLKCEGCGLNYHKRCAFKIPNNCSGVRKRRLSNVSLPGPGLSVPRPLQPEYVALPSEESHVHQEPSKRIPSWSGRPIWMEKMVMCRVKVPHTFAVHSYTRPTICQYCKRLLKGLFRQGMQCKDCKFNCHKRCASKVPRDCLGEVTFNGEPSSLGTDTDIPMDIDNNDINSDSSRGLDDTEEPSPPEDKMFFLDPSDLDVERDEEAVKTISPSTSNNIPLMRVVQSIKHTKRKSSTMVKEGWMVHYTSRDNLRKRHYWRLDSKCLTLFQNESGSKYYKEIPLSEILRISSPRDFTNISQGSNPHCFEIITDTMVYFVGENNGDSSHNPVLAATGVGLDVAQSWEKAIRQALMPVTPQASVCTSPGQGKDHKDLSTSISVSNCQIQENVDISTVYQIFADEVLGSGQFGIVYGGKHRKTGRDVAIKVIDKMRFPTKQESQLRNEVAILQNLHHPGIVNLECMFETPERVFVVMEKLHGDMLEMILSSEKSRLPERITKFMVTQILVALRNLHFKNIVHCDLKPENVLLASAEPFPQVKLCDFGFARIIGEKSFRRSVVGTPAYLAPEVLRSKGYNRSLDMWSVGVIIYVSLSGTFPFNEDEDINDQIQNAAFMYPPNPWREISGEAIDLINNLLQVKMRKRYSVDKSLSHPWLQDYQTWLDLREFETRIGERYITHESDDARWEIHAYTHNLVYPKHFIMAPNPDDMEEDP
The procedure, abridged:
as §1

The next assay deals with T4, AURKA (Homo sapiens, UniProt O14965).
T4 construct: purchased Nanosyn (enzymatic panel); SGC in-house recombinant human kinases (DSF panel); Invitrogen (ALK1-6)
T4 sequence (O14965 1-403): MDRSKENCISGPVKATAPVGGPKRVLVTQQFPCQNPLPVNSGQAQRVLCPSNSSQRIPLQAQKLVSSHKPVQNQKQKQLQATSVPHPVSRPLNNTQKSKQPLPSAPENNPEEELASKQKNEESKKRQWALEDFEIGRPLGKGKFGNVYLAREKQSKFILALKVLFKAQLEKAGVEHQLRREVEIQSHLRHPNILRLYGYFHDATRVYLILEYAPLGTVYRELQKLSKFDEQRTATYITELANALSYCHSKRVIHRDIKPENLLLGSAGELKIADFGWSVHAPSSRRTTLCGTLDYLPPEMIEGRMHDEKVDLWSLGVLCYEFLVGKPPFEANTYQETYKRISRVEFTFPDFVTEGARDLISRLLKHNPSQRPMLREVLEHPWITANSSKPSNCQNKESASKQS
The procedure, abridged:
as §1

In a further assay the target is T5, AMPKα1 (Homo sapiens, UniProt Q13131).
T5 construct: purchased Nanosyn (enzymatic panel); SGC in-house recombinant human kinases (DSF panel); Invitrogen (ALK1-6)
The procedure, abridged:
as §1

Molecules are shown by their SMILES.

T5 sequence (Q13131 whole entry): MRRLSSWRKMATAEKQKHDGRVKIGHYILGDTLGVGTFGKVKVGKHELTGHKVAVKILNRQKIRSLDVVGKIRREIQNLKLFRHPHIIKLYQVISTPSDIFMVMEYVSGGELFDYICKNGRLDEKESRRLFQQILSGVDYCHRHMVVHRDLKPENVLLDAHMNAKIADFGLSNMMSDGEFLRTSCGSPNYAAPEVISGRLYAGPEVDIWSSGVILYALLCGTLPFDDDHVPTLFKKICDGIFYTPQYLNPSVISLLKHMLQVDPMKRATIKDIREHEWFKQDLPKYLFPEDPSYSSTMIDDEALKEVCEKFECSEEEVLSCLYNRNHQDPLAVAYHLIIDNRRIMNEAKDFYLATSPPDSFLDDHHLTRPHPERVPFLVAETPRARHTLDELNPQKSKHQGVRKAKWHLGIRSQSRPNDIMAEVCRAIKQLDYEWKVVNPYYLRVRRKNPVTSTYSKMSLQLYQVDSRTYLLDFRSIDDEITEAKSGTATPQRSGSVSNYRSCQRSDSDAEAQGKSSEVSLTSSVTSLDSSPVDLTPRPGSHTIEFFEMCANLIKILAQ
T5 sequence (Q9Y478 whole entry partner): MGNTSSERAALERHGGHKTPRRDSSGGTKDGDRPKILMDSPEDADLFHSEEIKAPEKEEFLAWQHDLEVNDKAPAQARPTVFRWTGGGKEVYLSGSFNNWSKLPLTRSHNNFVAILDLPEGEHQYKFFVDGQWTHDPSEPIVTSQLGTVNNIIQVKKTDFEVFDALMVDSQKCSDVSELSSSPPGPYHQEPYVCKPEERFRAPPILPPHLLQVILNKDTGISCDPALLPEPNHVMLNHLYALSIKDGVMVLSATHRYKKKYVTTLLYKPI
T5 sequence (P54619 whole entry partner): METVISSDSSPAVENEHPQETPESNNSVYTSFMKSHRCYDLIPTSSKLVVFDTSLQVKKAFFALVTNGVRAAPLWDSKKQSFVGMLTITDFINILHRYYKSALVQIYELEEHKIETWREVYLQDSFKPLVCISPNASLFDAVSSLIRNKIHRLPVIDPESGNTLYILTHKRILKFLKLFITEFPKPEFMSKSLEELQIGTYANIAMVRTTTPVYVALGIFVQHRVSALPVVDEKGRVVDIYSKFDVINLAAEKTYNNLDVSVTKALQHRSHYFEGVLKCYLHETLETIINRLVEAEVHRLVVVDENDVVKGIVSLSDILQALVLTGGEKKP

Regarding `COc1cc(-c2cc(-c3cccc(O)c3)cnc2N)cc(OC)c1OC` [K02288, 3-[6-amino-5-(3,4,5-trimethoxy-phenyl)-pyridin-3-yl]-phenol], the inhibition at 0.1 µM at ITK was 0%; on MARK4 it was 2.4%; at PRKD3, -1%; at AURKA, -2%; on AMPKα1, -1%. The inhibition at 1 µM is 0% on ITK; 7.2% at MARK4; 3.2% on PRKD3; -1% on AURKA; 0% on AMPKα1.

For the molecule `c1ccc2c(-c3cnn4cc(-c5ccc(N6CCNCC6)cc5)cnc34)ccnc2c1` [LDN-193189], the inhibition at 0.1 µM is 0.9% at ITK; 13% on MARK4; 3.2% on PRKD3; 4.2% at AURKA; 5.2% on AMPKα1. In addition, the inhibition at 1 µM on ITK worked out at 3.6%; on MARK4, 61%; on PRKD3, 13%; on AURKA it was 23%; at AMPKα1 it was 23%.

The values above are taken from paper PMC3639963, “A New Class of Small Molecule Inhibitor of BMP Signaling” (PLoS ONE, 2013).
